The IC50 is the point on the concentration scale where inhibition reaches its midpoint. In general, EC50 refers to the concentration at which the effect is half-maximal.

Our source for the IC50, EC50 and selectivity ratio values is ChEMBL document CHEMBL3124911, “Chikungunya virus: emerging targets and new opportunities for medicinal chemistry” (J Med Chem, 2014).

The test system of series [1] is Chikungunya virus. The series can be described thus: Antiviral activity against Chikungunya virus by cell-based assay. The class given is functional.
Series [2] deals with Chikungunya virus. As to the kind of experiment: Antiviral activity against Chikungunya virus. Type of series: functional.
Series [3] relates to Chikungunya virus. As to the kind of experiment: Antiviral activity against Chikungunya virus infected in African green monkey Vero cells assessed as inhibition of virus-induced cytopathic effect. Type of series: functional, cell-based. For orientation: Cytopathic effects are the visible damage that an infection or toxin causes in cultured cells.
Series [4] is described as follows: Selectivity index, ratio of CC50 for African green monkey Vero cells to EC50 for Chikungunya virus. The class given is toxicity, cell-based. To be noted: read-out: Ratio CC50/EC50.
In series [5] the test system is Chikungunya virus. The series can be described thus: Antiviral activity against Chikungunya virus infected in BHK21 cells assessed as inhibition of viral replication after 24 hrs. Type of series: functional, cell-based. To be noted: BHK-21, 24 h.
Series [6] can be described thus: Inhibition of Chikungunya virus IMPDH.

Converted amounts (≈) assume the structure as drawn.

Molecule `CCOC(=O)c1c(CS(=O)(=O)c2ccccc2)n(C)c2cc(Br)c(O)c(CN(C)C)c12` had an IC50 in series [1] of 56.4 µM.
As to `C=C(C)[C@@]1(O)[C@@H]2OC3(c4ccccc4)O[C@H]1[C@@H](C)[C@]1(O3)C3=CC(=C(Cl)Cl)[C@H](OC(=O)c4ccccc4)[C@@]3(O)[C@H](OC(C)=O)[C@@]3(COC(C)=O)O[C@H]3[C@@H]21`, the EC50 in series [2] was 1.5 µM.
Take `CCOC(=O)c1c(C[S+]([O-])c2ccccc2)n(C)c2cc(Br)c(O)c(CN(C)C)c12` (stereo unspecified): the IC50 in series [1] stood at 54.5 µM.
In the case of `CCOc1ccc(/C=N/NC(=O)C2CC2c2ccc(C(C)(C)C)cc2)cc1OCC` (stereo unspecified), the EC50 in series [3] came to 5 µM. The selectivity ratio in series [4] stood at 14.
For `CCOc1ccc(/C=N/NC(=O)/C=C/c2ccc(C(C)(C)C)cc2)cc1OCC`, the EC50 in series [3] is 3.2 µM. In addition, the selectivity ratio in series [4] worked out at 32.
As for `CC1(C)CC[C@]2(C)CC[C@]3(C)C(=CC[C@@H]4[C@@]5(C)CCC(=O)C(C)(C)[C@@H]5CC[C@]43C)[C@@H]2C1`, in series [1], the EC50 worked out at 86 µM.
In the case of `O=c1cnn([C@@H]2O[C@H](CO)[C@@H](O)[C@H]2O)c(=O)[nH]1` [6-AZAURIDINE], the EC50 in series [2] came to 0.2 µg/mL.
As to `CCN(CC)CCCC(C)Nc1ccnc2cc(Cl)ccc12` (stereo unspecified) [CHLOROQUINE], the IC50 in series [2] was determined as 1.1 µg/mL (≈ 3.44 µM).
For `COC(=O)C[C@](O)(CCC(C)(C)O)C(=O)O[C@@H]1C(OC)=C[C@]23CCCN2CCc2cc4c(cc2[C@H]13)OCO4` [HARRINGTONINE], the half-maximal effective concentration (EC50) in series [5] worked out at 0.24 µM.
As to `C=C(C)[C@@H]1CC[C@]2(C)CC[C@]3(C)[C@H](CC[C@@H]4[C@@]5(C)CCC(=O)C(C)(C)[C@@H]5CC[C@]43C)[C@@H]12` [LUPENONE], the EC50 in series [1] worked out at 77 µM.
`COc1c(C)c2c(c(O)c1C/C=C(\C)CCC(=O)O)C(=O)OC2` [MYCOPHENOLIC ACID]: in series [6], the IC50 is 0.2 µM.
On to `C=C[C@H]1CN2CC[C@H]1C[C@H]2[C@H](O)c1ccnc2ccc(OC)cc12` [QUININE], for which the midpoint of inhibition in series [2], the IC50, lay at 0.1 µg/mL (≈ 0.308 µM).
Consider `NC(=O)c1ncn([C@@H]2O[C@H](CO)[C@@H](O)[C@H]2O)n1` [RIBAVIRIN], for which a half-maximal effect in series [2] (EC50) was put at 83.3 µg/mL.
Regarding `CCOC(=O)c1c(CSc2ccccc2)n(C)c2cc(Br)c(O)c(CN(C)C)c12` [UMIFENOVIR], inhibition in series [1] was half-maximal at 12.2 µM (IC50).
